Laboratory results published in publication PMC10140581, “Development and evaluation of novel artemisinin-isatin hybrids with potential anti-leukemic cytotoxicity” (Frontiers in Oncology, 2023).

Tests used:
[1] = tested on: K562/ADR human myeloid leukemia cell line; assay: MTT antiproliferative assay, K562/ADR; format: cell-based
Method: (§1) The antiproliferative activity and cytotoxicity of ester tethered ART-isatin hybrids 7a-u against human myeloid leukemia cell lines (K562 CM-0130 purchased from Procell and K562/ADR AW-CELLS-H0187 purchased from AnWei-sci), human acute lymphoblastic leukemia cell line (CCRF-CEM CL-0058 purchased from Procell) as well as cytotoxicity towards normal human peripheral blood mononuclear cells (PBMCs 230470, purchased from Mingzhoubio) were assessed by 3-(4,5-dimethylthiazol-2-yl)-2,5-diphenyltetrazolium bromide (MTT) assay. The antiproliferative activity was expressed by half maximal inhibitory concentration (IC50) values, which were presented in Table 2 .
(§2) Medium in wells was replaced after 24 h with fresh medium containing the tested compounds in DMSO (1% v/v) and incubated for 72 h. […] 3-(4,5-dimethyl-2-thiazolyl)-2,5-diphenyltetrazolium bromide (MTT) solution (10 µL) was added to each well, and the cultures were incubated for an additional 4 h at 37°C. A further 100 µL of […] was added and incubation continued overnight at 37°C. The absorbance at 540 nm was determined in each well with a 96-well plate reader. The growth of the treated cells was compared with that of untreated cells. Half maximum inhibitory concentration (IC50) is a measurement of the efficacy of a substance in inhibiting a specific biological or biochemical process. […] In this experiment, the dose-response curve constructed by Spss22.0 software was used to calculate the inhibitory effect of the hybrid (0 μM-100 μM) on the activity of leukemia cell lines. Each experiment was performed independently in triplicate with three tests in each, and results were reported as mean inhibitory concentration IC50.

[2] = tested on: CCRF-CEM human acute lymphoblastic leukemia cell line; assay: MTT antiproliferative assay, CCRF-CEM; format: cell-based
Method: as §1, with “assay.” for “assay. The antiproliferative activity was expressed by half maximal inhibitory concentration (IC50) values, which were presented in Table 2 .”
as §2

[3] = MTT cytotoxicity assay, normal PBMCs; format: cell-based, human; details: normal peripheral blood mononuclear cells (PBMCs); MTT assay, normal human PBMCs
Method: as §1, with “assay.” for “assay. The antiproliferative activity was expressed by half maximal inhibitory concentration (IC50) values, which were presented in Table 2 .”

[4] = tested on: normal human peripheral blood mononuclear cells (PBMCs); assay: MTT cytotoxicity assay, normal PBMCs; format: cell-based; details: PBMCs vs CCRF-CEM
Method: as §1, with “assay.” for “assay. The antiproliferative activity was expressed by half maximal inhibitory concentration (IC50) values, which were presented in Table 2 .”

[5] = tested on: K562 human myeloid leukemia cell line; assay: MTT antiproliferative assay, K562; format: cell-based
Method: as §1, with “assay.” for “assay. The antiproliferative activity was expressed by half maximal inhibitory concentration (IC50) values, which were presented in Table 2 .”
as §2

Compound | IC50 [1] [µM] | IC50 [2] [µM] | IC50 [3] [µM] | SI, Selectivity index, IC50(PBMCs)/IC50(CCRF-CEM) [4] | IC50 [5] [µM]
CON=C1C(=O)N(CCCC(=O)OC2O[C@@H]3O[C@@]4(C)CC[C@H]5[C@H](C)CC[C@@H]([C@H]2C)[C@@]35OO4)c2ccc(OC)cc21 (stereo partly drawn) [hybrid 7s, (3R,5aS,6R,8aS,9R,12R,12aR)-3,6,9-trimethyldecahydro-12H-3,12-epoxy[1,2]dioxepino[4,3-i]isochromen-10-yl 4-(5-methoxy-3-(methoxyimino)-2-oxoindolin-1-yl)butanoate] | > 100 | 3.82 | > 100 | >26.17 | > 100
C[C@@H]1CC[C@H]2[C@@H](C)C(=O)O[C@@H]3O[C@@]4(C)CC[C@@H]1[C@]32OO4 [ART, Artemisinin] | > 100 | > 100 |  |  | > 100
CON=C1C(=O)N(CCC(=O)OC2O[C@@H]3O[C@@]4(C)CC[C@H]5[C@H](C)CC[C@@H]([C@H]2C)[C@@]35OO4)c2ccccc21 (stereo partly drawn) [hybrid 7e, (3R,5aS,6R,8aS,9R,12R,12aR)-3,6,9-trimethyldecahydro-12H-3,12-epoxy[1,2]dioxepino[4,3-i]isochromen-10-yl 3-(3-(methoxyimino)-2-oxoindolin-1-yl)propanoate] | 22.7 | 15.2 | > 100 | >6.59 | 3.78
C[C@@H]1CC[C@H]2[C@@H](C)C(OC(=O)CCCN3C(=O)C(=NOCc4ccccc4)c4ccccc43)O[C@@H]3O[C@@]4(C)CC[C@@H]1[C@]32OO4 (stereo partly drawn) [hybrid 7o, (3R,5aS,6R,8aS,9R,12R,12aR)-3,6,9-trimethyldecahydro-12H-3,12-epoxy[1,2]dioxepino[4,3-i]isochromen-10-yl 4-(3-[(benzyloxy)imino)-2-oxoindolin-1-yl]butanoate] | > 100 | > 100 |  |  | > 100
CON=C1C(=O)N(CCC(=O)OC2O[C@@H]3O[C@@]4(C)CC[C@H]5[C@H](C)CC[C@@H]([C@H]2C)[C@@]35OO4)c2ccc(F)cc21 (stereo partly drawn) [hybrid 7h, (3R,5aS,6R,8aS,9R,12R,12aR)-3,6,9-trimethyldecahydro-12H-3,12-epoxy[1,2]dioxepino[4,3-i]isochromen-10-yl 3-(5-fluoro-3-(methoxyimino)-2-oxoindolin-1-yl)propanoate] | 16.2 | 1.31 | > 100 | >76.33 | > 100
COc1ccc2c(c1)C(=NOCc1ccccc1)C(=O)N2CCCC(=O)OC1O[C@@H]2O[C@@]3(C)CC[C@H]4[C@H](C)CC[C@@H]([C@H]1C)[C@@]24OO3 (stereo partly drawn) [hybrid 7u, (3R,5aS,6R,8aS,9R,12R,12aR)-3,6,9-trimethyldecahydro-12H-3,12-epoxy[1,2]dioxepino[4,3-i]isochromen-10-yl 4-(3-[(benzyloxy)imino)-5-methoxy-2-oxoindolin-1-yl]butanoate] | > 100 | 2.45 | > 100 | >40.81 | > 100
CON=C1C(=O)N(CC(=O)OC2O[C@@H]3O[C@@]4(C)CC[C@H]5[C@H](C)CC[C@@H]([C@H]2C)[C@@]35OO4)c2ccc(F)cc21 (stereo partly drawn) [hybrid 7c, (3R,5aS,6R,8aS,9R,12R,12aR)-3,6,9-trimethyldecahydro-12H-3,12-epoxy[1,2]dioxepino[4,3-i]isochromen-10-yl 2-(5-fluoro-3-(methoxyimino)-2-oxoindolin-1-yl)acetate] | > 100 | 29.4 | > 100 |  | > 100
CCON=C1C(=O)N(CCCC(=O)OC2O[C@@H]3O[C@@]4(C)CC[C@H]5[C@H](C)CC[C@@H]([C@H]2C)[C@@]35OO4)c2ccc(OC)cc21 (stereo partly drawn) [hybrid 7t, (3R,5aS,6R,8aS,9R,12R,12aR)-3,6,9-trimethyldecahydro-12H-3,12-epoxy[1,2]dioxepino[4,3-i]isochromen-10-yl 4-(3-(ethoxyimino)-5-methoxy-2-oxoindolin-1-yl)butanoate] | > 100 | 1.9 | > 100 | >52.63 | > 100
C[C@@H]1CC[C@H]2[C@@H](C)C(OC(=O)CN3C(=O)C(=NOCc4ccccc4)c4ccccc43)O[C@@H]3O[C@@]4(C)CC[C@@H]1[C@]32OO4 (stereo partly drawn) [hybrid 7b, (3R,5aS,6R,8aS,9R,12R,12aR)-3,6,9-trimethyldecahydro-12H-3,12-epoxy[1,2]dioxepino[4,3-i]isochromen-10-yl 2-(3-[(benzyloxy)imino)-2-oxoindolin-1-yl]acetate] | > 100 | > 100 |  |  | > 100
C[C@@H]1CC[C@H]2[C@@H](C)C(OC(=O)CCN3C(=O)C(=NOCc4ccccc4)c4cc(F)ccc43)O[C@@H]3O[C@@]4(C)CC[C@@H]1[C@]32OO4 (stereo partly drawn) [hybrid 7j, (3R,5aS,6R,8aS,9R,12R,12aR)-3,6,9-trimethyldecahydro-12H-3,12-epoxy[1,2]dioxepino[4,3-i]isochromen-10-yl 3-(3-[(benzyloxy)imino)-5-fluoro-2-oxoindolin-1-yl]propanoate] | 3.83 | > 100 |  |  | > 100
CON=C1C(=O)N(CCCC(=O)OC2O[C@@H]3O[C@@]4(C)CC[C@H]5[C@H](C)CC[C@@H]([C@H]2C)[C@@]35OO4)c2ccccc21 (stereo partly drawn) [hybrid 7m, (3R,5aS,6R,8aS,9R,12R,12aR)-3,6,9-trimethyldecahydro-12H-3,12-epoxy[1,2]dioxepino[4,3-i]isochromen-10-yl 4-(3-(methoxyimino)-2-oxoindolin-1-yl)butanoate] | > 100 | 2.78 | > 100 | >35.97 | > 100
CCON=C1C(=O)N(CCC(=O)OC2O[C@@H]3O[C@@]4(C)CC[C@H]5[C@H](C)CC[C@@H]([C@H]2C)[C@@]35OO4)c2ccccc21 (stereo partly drawn) [hybrid 7f, (3R,5aS,6R,8aS,9R,12R,12aR)-3,6,9-trimethyldecahydro-12H-3,12-epoxy[1,2]dioxepino[4,3-i]isochromen-10-yl 3-(3-(ethoxyimino)-2-oxoindolin-1-yl)propanoate] | > 100 | 9.16 | > 100 | >10.91 | 5.7
CON=C1C(=O)N(CCCC(=O)OC2O[C@@H]3O[C@@]4(C)CC[C@H]5[C@H](C)CC[C@@H]([C@H]2C)[C@@]35OO4)c2ccc(F)cc21 (stereo partly drawn) [hybrid 7p, (3R,5aS,6R,8aS,9R,12R,12aR)-3,6,9-trimethyldecahydro-12H-3,12-epoxy[1,2]dioxepino[4,3-i]isochromen-10-yl 4-(3-(methoxyimino)-5-fluoro-2-oxoindolin-1-yl)butanoate] | > 100 | 18.6 | > 100 | >5.36 | 49.8
O=C(CCCCCCC(=O)Nc1ccccc1)NO [Vorinostat, reference compound] | 2.18 |  |  |  | 
COc1cccc2c1C(=O)c1c(O)c3c(c(O)c1C2=O)C[C@@](O)(C(=O)CO)C[C@@H]3O[C@H]1C[C@H](N)[C@H](O)[C@H](C)O1 [Adriamycin, reference compound] | > 100 | 0.01 | 46.9 | 4690 | 4.89
CCON=C1C(=O)N(CCCC(=O)OC2O[C@@H]3O[C@@]4(C)CC[C@H]5[C@H](C)CC[C@@H]([C@H]2C)[C@@]35OO4)c2ccccc21 (stereo partly drawn) [hybrid 7n, (3R,5aS,6R,8aS,9R,12R,12aR)-3,6,9-trimethyldecahydro-12H-3,12-epoxy[1,2]dioxepino[4,3-i]isochromen-10-yl 4-(3-(ethoxyimino)-2-oxoindolin-1-yl)butanoate] | > 100 | > 100 |  |  | > 100
C[C@@H]1CC[C@H]2[C@@H](C)C(OC(=O)CCN3C(=O)C(=NOCc4ccccc4)c4ccccc43)O[C@@H]3O[C@@]4(C)CC[C@@H]1[C@]32OO4 (stereo partly drawn) [hybrid 7g, (3R,5aS,6R,8aS,9R,12R,12aR)-3,6,9-trimethyldecahydro-12H-3,12-epoxy[1,2]dioxepino[4,3-i]isochromen-10-yl 3-(3-[(benzyloxy)imino)-2-oxoindolin-1-yl]propanoate] | > 100 | > 100 |  |  | > 100
CCON=C1C(=O)N(CCC(=O)OC2O[C@@H]3O[C@@]4(C)CC[C@H]5[C@H](C)CC[C@@H]([C@H]2C)[C@@]35OO4)c2ccc(F)cc21 (stereo partly drawn) [hybrid 7i, (3R,5aS,6R,8aS,9R,12R,12aR)-3,6,9-trimethyldecahydro-12H-3,12-epoxy[1,2]dioxepino[4,3-i]isochromen-10-yl 3-(3-(ethoxyimino)-5-fluoro-2-oxoindolin-1-yl)propanoate] | > 100 | > 100 |  |  | 15.9
